Tests used:
[1] = pig, in vivo
[2] = cited from earlier work
[3] = Blood concentrations of doxycycline hyclate after deployment of drug delivery formulations in pigs (Example 1); type: in vivo; settings: drug/vinylpolysiloxane pills (32% drug loading) deployed in three Yorkshire pigs
Procedure: The model drug, doxycycline hyclate, is added to the Zhermack Elite Double 22 base and catalyst to obtain a final drug loading percentage of 32%. Each pill has around 30 mg of drug (FIG. 1B). Drug crystals less than 75 μm can be visualized on the surface of the pill using scanning electron microscope (FIG. 1C). A series of pills with 0.5 mm holes inside them can be strung on a retention frame such as nitinol superelastic wire and encased in a Tygon tubing with stainless steel beads and Nusil glue at the ends of the article (FIG. 1D). Other drugs such as moxifloxacin, isoniazid, pyrazinamide, and ethambutol can also be mixed with the Zhermack Elite Double 22 base and catalyst at drug loading percentages greater than 25 wt %. Stability of the drug form can be evaluated using proton nuclear magnetic resonance spectroscopy after extraction of the drug from the matrix in water.
The pills were created by first mixing the drug into the Zhermack Elite Double 22 base and catalyst. […] Drug loading percentages were determined relative to the finally cured silicone mixture weight. […]
After deployment of the drug delivery formulations in three Yorkshire pigs in a large animal model, concentrations of doxycycline hyclate in the blood were measured, and drug release is sustained for at least 7 days with non-zero values (FIG. 3B).

Row | Molecule | duration of detectable serum concentrations [1] | stability in acid [2] | drug release sustained with non-zero concentrations in the blood [3] | duration drug was detectable in serum [1] | time after which no drug was detectable in serum [1] [days] | time to detectable serum concentrations [1] [min]
1 | CO[C@H]1/C=C/O[C@@]2(C)Oc3c(C)c(O)c4c(O)c(c(/C=N/N5CCN(C)CC5)c(O)c4c3C2=O)NC(=O)/C(C)=C\C=C\[C@H](C)[C@H](O)[C@@H](C)[C@@H](O)[C@@H](C)[C@H](OC(C)=O)[C@@H]1C [rifampicin] | a week | rapidly degrades in acid |  |  |  | 
2 | doxycycline hyclate |  |  | at least 7 days | at least 28 days | 3 | ≤ 15

— US11576860B2, “Retrieval systems and related methods” (Massachusetts Institute of Technology, priority 2018, dated 2023)
